Test results: ChEMBL document CHEMBL5380808, “Design, Synthesis, and Biological Activity of Marinacarboline Analogues as STAT3 Pathway Inhibitors for Docetaxel-Resistant Triple-Negative Breast Cancer” (J Med Chem, 2023)
Calls of active or inactive are those of the source. The calls are words filed in the database; no cut-off is given here.

Legend:
[1] = Induction of cell cycle arrest in docetaxel-resistant human MDA-MB-231-DTR cells assessed as accumulation at S phase at 5 uM incubated for 12 hrs by PI staining based flow cytometry analysis (reference value: 10.56%); type: functional
MDA-MB-231 [2] = experiment: Induction of apoptosis in docetaxel-resistant human MDA-MB-231-DTR cells assessed as downregulation of survivin expression level at 2.5 to 10 uM incubated for 48 hrs by Western blot analysis; type: functional, cell-based; settings: dose 2.5-10 µM
[3] = Synergistic antiproliferative activity against docetaxel-resistant human MDA-MB-231-DTR cells assessed as combination index at 4 uM incubated for 72 hrs in presence of 4 uM of docetaxel by Chou-Talalay method; type: functional
[4] = biological target: T1, Signal transducer and activator of transcription 5A (Homo sapiens) (UniProt P42229); experiment: Inhibition of STAT5 phosphorylation at Y694 residue in docetaxel-resistant human MDA-MB-231-DTR cells assessed as decrease in phosphorylated STAT5 level at 2.5 to 10 uM incubated for 24 hrs by Western blot analysis; type: cell-based; settings: dose 2.5-10 µM
T1 sequence (whole entry): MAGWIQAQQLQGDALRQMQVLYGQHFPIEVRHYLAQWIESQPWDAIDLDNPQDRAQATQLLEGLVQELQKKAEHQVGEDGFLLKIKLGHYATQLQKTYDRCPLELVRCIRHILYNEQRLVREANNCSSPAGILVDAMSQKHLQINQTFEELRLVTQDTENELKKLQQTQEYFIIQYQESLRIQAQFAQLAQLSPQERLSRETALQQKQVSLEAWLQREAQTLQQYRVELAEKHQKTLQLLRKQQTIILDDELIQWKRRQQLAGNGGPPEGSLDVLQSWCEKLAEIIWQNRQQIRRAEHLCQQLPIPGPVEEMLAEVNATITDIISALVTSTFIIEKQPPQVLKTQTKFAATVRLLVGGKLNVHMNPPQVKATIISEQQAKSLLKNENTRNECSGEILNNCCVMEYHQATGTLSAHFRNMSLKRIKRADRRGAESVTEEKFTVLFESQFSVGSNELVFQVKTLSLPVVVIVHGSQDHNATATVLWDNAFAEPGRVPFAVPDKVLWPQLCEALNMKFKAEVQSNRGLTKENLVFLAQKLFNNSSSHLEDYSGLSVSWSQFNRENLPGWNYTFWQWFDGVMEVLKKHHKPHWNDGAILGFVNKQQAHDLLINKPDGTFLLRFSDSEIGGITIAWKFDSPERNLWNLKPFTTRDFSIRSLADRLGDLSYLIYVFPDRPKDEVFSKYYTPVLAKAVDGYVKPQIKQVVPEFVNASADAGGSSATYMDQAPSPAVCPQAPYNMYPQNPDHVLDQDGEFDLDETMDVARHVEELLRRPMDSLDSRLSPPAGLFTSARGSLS

[5] = Synergistic antiproliferative activity against docetaxel-resistant human MDA-MB-231-DTR cells assessed as combination index at 2 uM incubated for 72 hrs in presence of 2 uM of docetaxel by Chou-Talalay method; type: functional
[6] = Induction of cell cycle arrest in docetaxel-resistant human MDA-MB-231-DTR cells assessed as accumulation at subG1 phase at 5 uM incubated for 24 hrs by PI staining based flow cytometry analysis (reference value: 0.41%); type: functional
[7] = Induction of cell cycle arrest in docetaxel-resistant human MDA-MB-231-DTR cells assessed as accumulation at G2/M phase at 2.5 uM incubated for 36 hrs by PI staining based flow cytometry analysis (reference value: 13.16%); type: functional
[8] = Induction of cell cycle arrest in docetaxel-resistant human MDA-MB-231-DTR cells assessed as accumulation at G0/G1 phase at 10 uM incubated for 36 hrs by PI staining based flow cytometry analysis (reference value: 74.77%); type: functional
[9] = Synergistic antiproliferative activity against docetaxel-resistant human MDA-MB-231-DTR cells assessed as combination index at 4 uM incubated for 72 hrs in presence of 2 uM of docetaxel by Chou-Talalay method; type: functional
[10] = Induction of cell cycle arrest in docetaxel-resistant human MDA-MB-231-DTR cells assessed as accumulation at S phase at 5 uM incubated for 36 hrs by PI staining based flow cytometry analysis (reference value: 10.56%); type: functional
[11] = biological target: Signal transducer and activator of transcription 3 (Homo sapiens) (UniProt P40763); experiment: Inhibition of STAT3 phosphorylation at Y705 residue in docetaxel-resistant human MDA-MB-231-DTR cells assessed as decrease in phosphorylated STAT3 level at 2.5 to 10 uM incubated for 24 hrs by Western blot analysis; type: cell-based; settings: dose 2.5-10 µM
[12] = Induction of cell cycle arrest in docetaxel-resistant human MDA-MB-231-DTR cells assessed as accumulation at S phase at 5 uM incubated for 24 hrs by PI staining based flow cytometry analysis (reference value: 10.56%); type: functional
[13] = Induction of cell cycle arrest in docetaxel-resistant human MDA-MB-231-DTR cells assessed as accumulation at subG1 phase at 5 uM incubated for 36 hrs by PI staining based flow cytometry analysis (reference value: 0.52%); type: functional
MDA-MB-231 [14] = experiment: Antiproliferative activity against human MDA-MB-231 cells assessed as reduction in cell viability incubated for 72 hrs by MTT assay; type: functional, cell-based; settings: MDA-MB-231, 72 h
MDA-MB-231 [15] = experiment: Inhibition of cell migration in docetaxel-resistant human MDA-MB-231-DTR cells assessed as downregulation of N-cadherin expression level at 3 to 6 uM incubated for 24 hrs by Western blot analysis; type: functional, cell-based; settings: dose 3-6 µM
MDA-MB-231 [16] = experiment: Induction of cell cycle arrest at G2/M phase in docetaxel-resistant human MDA-MB-231-DTR cells assessed as upregulation of Chk2 phosphorylation at T68 at 2.5 to 10 uM incubated for 36 hrs by Western blot analysis; type: functional, cell-based; settings: dose 2.5-10 µM
MDA-MB-231 [17] = experiment: Induction of cell cycle arrest at G2/M phase in docetaxel-resistant human MDA-MB-231-DTR cells assessed as upregulation of Chk1 phosphorylation at S345 at 2.5 to 10 uM incubated for 36 hrs by Western blot analysis; type: functional, cell-based; settings: dose 2.5-10 µM
[18] = Induction of cell cycle arrest in docetaxel-resistant human MDA-MB-231-DTR cells assessed as accumulation at G0/G1 phase at 5 uM incubated for 24 hrs by PI staining based flow cytometry analysis (reference value: 75.49%); type: functional
[19] = Synergistic antiproliferative activity against docetaxel-resistant human MDA-MB-231-DTR cells assessed as combination index at 8 uM incubated for 72 hrs in presence of 2 uM of docetaxel by Chou-Talalay method; type: functional
MDA-MB-231 [20] = experiment: Inhibition of cell migration in docetaxel-resistant human MDA-MB-231-DTR cells at 3 to 6 uM incubated for 24 hrs by microscopy based wound healing assay; type: functional; settings: dose 3-6 µM
[21] = Induction of cell cycle arrest in docetaxel-resistant human MDA-MB-231-DTR cells assessed as accumulation at G2/M phase at 5 uM incubated for 36 hrs by PI staining based flow cytometry analysis (reference value: 13.54%); type: functional
[22] = Induction of cell cycle arrest in docetaxel-resistant human MDA-MB-231-DTR cells assessed as accumulation at S phase at 10 uM incubated for 36 hrs by PI staining based flow cytometry analysis (reference value: 11.57%); type: functional

Signal transducer and activator of transcription 3 (Homo sapiens), sequence (P40763 whole entry): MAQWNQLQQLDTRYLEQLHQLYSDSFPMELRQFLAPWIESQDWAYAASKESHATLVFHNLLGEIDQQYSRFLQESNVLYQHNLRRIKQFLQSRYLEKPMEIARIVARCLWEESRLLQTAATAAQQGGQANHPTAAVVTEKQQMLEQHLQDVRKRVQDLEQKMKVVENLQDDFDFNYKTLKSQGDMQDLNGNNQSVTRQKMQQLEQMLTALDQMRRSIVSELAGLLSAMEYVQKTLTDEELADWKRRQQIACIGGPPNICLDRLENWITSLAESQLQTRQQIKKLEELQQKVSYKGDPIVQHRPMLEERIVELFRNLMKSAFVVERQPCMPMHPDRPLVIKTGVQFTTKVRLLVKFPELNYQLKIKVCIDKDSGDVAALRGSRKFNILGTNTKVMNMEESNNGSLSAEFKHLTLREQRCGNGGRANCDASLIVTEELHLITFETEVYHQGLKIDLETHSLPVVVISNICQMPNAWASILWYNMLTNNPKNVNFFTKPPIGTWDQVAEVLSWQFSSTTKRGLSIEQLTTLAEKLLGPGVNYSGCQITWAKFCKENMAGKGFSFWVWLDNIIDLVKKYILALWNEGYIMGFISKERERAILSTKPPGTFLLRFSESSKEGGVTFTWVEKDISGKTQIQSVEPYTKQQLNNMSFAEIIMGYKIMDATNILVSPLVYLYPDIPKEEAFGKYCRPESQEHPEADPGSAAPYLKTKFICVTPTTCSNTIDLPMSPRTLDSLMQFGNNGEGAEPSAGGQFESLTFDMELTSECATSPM

With `O=C(NCCc1c[nH]c2ccccc12)c1cc2c([nH]c3ccccc32)c(C(=O)c2ccc(Br)cc2)n1` as the compound, how does the Activity [1] read?
Its Activity is 12.14%.

And the Activity (MDA-MB-231 [2])?
The Activity was “Active”.

What about the CI [3] of the same compound?
The CI was 0.37.

What about the inhibition [4] of the same compound?
The inhibition was “inactive”.

What about the CI [5] of the same compound?
Its CI is 0.23.

And the Activity [6]?
The Activity was 1.75%.

What about the Activity [7] of the same compound?
Its Activity is 25.18%.

What about the Activity [8] of the same compound?
Its Activity is 51.09%.

And the CI [9]?
The CI was 0.53.

What about the Activity [10] of the same compound?
The Activity was 14.21%.

And the inhibition [11]?
Its inhibition is “Active”.

What about the Activity [12] of the same compound?
The Activity was 18.28%.

What about the Activity [13] of the same compound?
Its Activity is 1.81%.

And the IC50 (MDA-MB-231 [14])?
Its IC50 is 2980 nM.

What about the inhibition (MDA-MB-231 [15]) of the same compound?
The inhibition was “Active”.

And the Activity (MDA-MB-231 [16])?
The Activity was “Active”.

And the Activity (MDA-MB-231 [17])?
Its Activity is “Active”.

And the Activity [18]?
Its Activity is 82.18%.

And the CI [19]?
Its CI is 0.45.

What about the inhibition (MDA-MB-231 [20]) of the same compound?
The inhibition was “Dose-Dependent Effect”.

What about the Activity [21] of the same compound?
Its Activity is 26.59%.

What about the Activity [22] of the same compound?
The Activity was 18.42%.
